Tests used:
MCF7 = experiment: Cytotoxicity against Homo sapiens (human) MCF7 cells after 48 hr by MTT assay; type: cell-based; settings: MCF7, 48 h
Entamoeba histolytica = experiment: Antiamoebic activity against trophozoites of Entamoeba histolytica HM-1:IMSS after 72 hr by eosin stain-based spectrophotometric analysis; type: functional, organism-based

## Cc1ncc([N+](=O)[O-])n1CCO [METRONIDAZOLE]
MCF7
  IC50: > 250 µM

## Nc1nnc(-c2ccccc2)s1
Entamoeba histolytica
  IC50: 5.46 µM
